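Growth conditions: 96-well plates. Treatment: test compound, 48 hours, 5 concentrations. Analysis: linear interpolation between bracketing concentrations; unreached endpoints set to highest concentration. GI50 marks 50% less growth. TGI: total growth inhibition.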
Key:
Experiment in all cases: NCI tumour cell line growth inhibition, 48 h
SK-MEL-28 melanoma = system: SK-MEL-28 melanoma
NCI-H522 lung = system: NCI-H522 lung
CCRF-CEM leukemia = system: CCRF-CEM leukemia
HL-60(TB) leukemia = system: HL-60(TB) leukemia
SF-268 CNS = system: SF-268 CNS
SR leukemia = system: SR leukemia
HT29 colon = system: HT29 colon
UACC-257 melanoma = system: UACC-257 melanoma
SW-620 colon = system: SW-620 colon
SN12C renal = system: SN12C renal
TK-10 renal = system: TK-10 renal
SF-539 CNS = system: SF-539 CNS
A549 NSCLC = system: A549 NSCLC
KM12 colon = system: KM12 colon
SNB-75 CNS = system: SNB-75 CNS
HCC-2998 colon = system: HCC-2998 colon
NCI-H226 lung = system: NCI-H226 lung
RPMI-8226 leukemia = system: RPMI-8226 leukemia
786-0 renal = system: 786-0 renal
EKVX NSCLC = system: EKVX NSCLC
K-562 leukemia = system: K-562 leukemia
MCF7 breast = system: MCF7 breast
SK-MEL-2 melanoma = system: SK-MEL-2 melanoma
NCI-H23 lung = system: NCI-H23 lung
OVCAR-5 ovarian = system: OVCAR-5 ovarian
SF-295 CNS = system: SF-295 CNS
HCT-116 colon = system: HCT-116 colon
HS 578T breast = system: HS 578T breast
A498 renal = system: A498 renal
HOP-62 NSCLC = system: HOP-62 NSCLC
OVCAR-8 ovarian = system: OVCAR-8 ovarian
MALME-3M melanoma = system: MALME-3M melanoma
SK-MEL-5 melanoma = system: SK-MEL-5 melanoma
ACHN renal = system: ACHN renal
U251 CNS = system: U251 CNS
OVCAR-3 ovarian = system: OVCAR-3 ovarian
PC-3 prostate = system: PC-3 prostate
MOLT-4 leukemia = system: MOLT-4 leukemia
NCI-H460 lung = system: NCI-H460 lung
HCT-15 colon = system: HCT-15 colon
DU-145 prostate = system: DU-145 prostate
MDA-MB-231 breast = system: MDA-MB-231 breast
M14 melanoma = system: M14 melanoma
OVCAR-4 ovarian = system: OVCAR-4 ovarian
SK-OV-3 ovarian = system: SK-OV-3 ovarian
CAKI-1 renal = system: CAKI-1 renal
SNB-19 CNS = system: SNB-19 CNS
IGROV1 ovarian = system: IGROV1 ovarian
UACC-62 melanoma = system: UACC-62 melanoma
LOX IMVI melanoma = system: LOX IMVI melanoma
BT-549 breast = system: BT-549 breast
MDA-MB-435 = system: MDA-MB-435
HOP-92 NSCLC = system: HOP-92 NSCLC
UO-31 renal = system: UO-31 renal
NCI/ADR-RES ovarian = system: NCI/ADR-RES ovarian
T-47D breast = system: T-47D breast
RXF 393 renal = system: RXF 393 renal
COLO 205 colon = system: COLO 205 colon

Cc1ncc([N+](=O)[O-])n1CC(O)Cn1ccnc1[N+](=O)[O-] (centres undefined)
TGI (SK-MEL-28 melanoma): > 100 µM
TGI (NCI-H522 lung): > 100 µM
TGI (CCRF-CEM leukemia): > 100 µM
TGI (HL-60(TB) leukemia): > 100 µM
TGI (SF-268 CNS): > 100 µM
TGI (SR leukemia): > 100 µM
TGI (HT29 colon): > 100 µM
TGI (UACC-257 melanoma): > 100 µM
TGI (SW-620 colon): > 100 µM
TGI (SN12C renal): > 100 µM
TGI (TK-10 renal): > 100 µM
TGI (SF-539 CNS): > 100 µM
TGI (A549 NSCLC): > 100 µM
TGI (KM12 colon): > 100 µM
TGI (SNB-75 CNS): > 100 µM
TGI (HCC-2998 colon): > 100 µM
TGI (NCI-H226 lung): > 100 µM
TGI (RPMI-8226 leukemia): > 100 µM
TGI (786-0 renal): > 100 µM
TGI (EKVX NSCLC): > 100 µM
TGI (K-562 leukemia): > 100 µM
TGI (MCF7 breast): > 100 µM
TGI (SK-MEL-2 melanoma): > 100 µM
TGI (NCI-H23 lung): > 100 µM
TGI (OVCAR-5 ovarian): > 100 µM
TGI (SF-295 CNS): > 100 µM
TGI (HCT-116 colon): > 100 µM
TGI (HS 578T breast): > 100 µM
TGI (A498 renal): > 100 µM
TGI (HOP-62 NSCLC): > 100 µM
TGI (OVCAR-8 ovarian): > 100 µM
TGI (MALME-3M melanoma): > 100 µM
TGI (SK-MEL-5 melanoma): > 100 µM
TGI (ACHN renal): > 100 µM
TGI (U251 CNS): > 100 µM
TGI (OVCAR-3 ovarian): > 100 µM
TGI (PC-3 prostate): > 100 µM
TGI (MOLT-4 leukemia): > 100 µM
TGI (NCI-H460 lung): > 100 µM
TGI (HCT-15 colon): > 100 µM

C=C(C)[C@@H]1CC[C@]2(CNCCO)CC[C@]3(C)[C@H](CC[C@@H]4[C@@]5(C)CCC(N)[C@@](C)(CO)[C@@H]5CC[C@]43C)[C@@H]12 (some centres undefined)
GI50 (DU-145 prostate): 1.65 µM
TGI (DU-145 prostate): 3.18 µM
GI50 (SK-MEL-28 melanoma): 1.84 µM
TGI (SK-MEL-28 melanoma): 3.38 µM
GI50 (MDA-MB-231 breast): 1.86 µM
TGI (MDA-MB-231 breast): 3.44 µM
GI50 (NCI-H522 lung): 1.95 µM
TGI (NCI-H522 lung): 3.69 µM
GI50 (CCRF-CEM leukemia): 2.17 µM
TGI (CCRF-CEM leukemia): 5.3 µM
GI50 (HL-60(TB) leukemia): 1.33 µM
TGI (HL-60(TB) leukemia): 3.46 µM
GI50 (SF-268 CNS): 1.75 µM
TGI (SF-268 CNS): 3.46 µM
GI50 (SR leukemia): 1.68 µM
TGI (SR leukemia): 4.08 µM
GI50 (HT29 colon): 1.46 µM
TGI (HT29 colon): 3.18 µM
GI50 (UACC-257 melanoma): 1.85 µM
TGI (UACC-257 melanoma): 3.39 µM
GI50 (SW-620 colon): 1.93 µM
TGI (SW-620 colon): 3.88 µM
GI50 (SN12C renal): 1.75 µM
TGI (SN12C renal): 3.41 µM
GI50 (TK-10 renal): 1.74 µM
TGI (TK-10 renal): 3.2 µM
GI50 (M14 melanoma): 1.75 µM
TGI (M14 melanoma): 3.31 µM
GI50 (OVCAR-4 ovarian): 1.9 µM
TGI (OVCAR-4 ovarian): 3.99 µM
GI50 (SF-539 CNS): 1.77 µM
TGI (SF-539 CNS): 3.27 µM
GI50 (SK-OV-3 ovarian): 1.95 µM
TGI (SK-OV-3 ovarian): 3.41 µM
GI50 (A549 NSCLC): 1.8 µM
TGI (A549 NSCLC): 3.38 µM
GI50 (KM12 colon): 1.71 µM
TGI (KM12 colon): 3.21 µM
GI50 (CAKI-1 renal): 2.85 µM
TGI (CAKI-1 renal): 7.82 µM
GI50 (SNB-19 CNS): 1.83 µM
TGI (SNB-19 CNS): 3.36 µM
GI50 (IGROV1 ovarian): 1.98 µM
TGI (IGROV1 ovarian): 4.09 µM
GI50 (SNB-75 CNS): 1.58 µM
TGI (SNB-75 CNS): 3.1 µM
GI50 (HCC-2998 colon): 1.83 µM
TGI (HCC-2998 colon): 3.35 µM
GI50 (UACC-62 melanoma): 1.77 µM
TGI (UACC-62 melanoma): 3.19 µM
GI50 (NCI-H226 lung): 2.13 µM
TGI (NCI-H226 lung): 5.48 µM
GI50 (RPMI-8226 leukemia): 1.65 µM
TGI (RPMI-8226 leukemia): 3.91 µM
GI50 (786-0 renal): 1.68 µM
TGI (786-0 renal): 3.11 µM
GI50 (EKVX NSCLC): 1.75 µM
TGI (EKVX NSCLC): 3.38 µM
GI50 (K-562 leukemia): 1.5 µM
TGI (K-562 leukemia): 3.7 µM
GI50 (LOX IMVI melanoma): 1.64 µM
TGI (LOX IMVI melanoma): 3.1 µM
GI50 (MCF7 breast): 1.6 µM
TGI (MCF7 breast): 3.17 µM
GI50 (BT-549 breast): 1.74 µM
TGI (BT-549 breast): 3.33 µM
GI50 (MDA-MB-435): 1.75 µM
TGI (MDA-MB-435): 3.25 µM
GI50 (SK-MEL-2 melanoma): 1.77 µM
TGI (SK-MEL-2 melanoma): 3.27 µM
GI50 (NCI-H23 lung): 2.14 µM
TGI (NCI-H23 lung): 3.95 µM
GI50 (OVCAR-5 ovarian): 2.3 µM
TGI (OVCAR-5 ovarian): 4.79 µM
GI50 (HOP-92 NSCLC): 1.43 µM
TGI (HOP-92 NSCLC): 2.94 µM
GI50 (SF-295 CNS): 1.76 µM
TGI (SF-295 CNS): 3.33 µM
GI50 (HCT-116 colon): 1.55 µM
TGI (HCT-116 colon): 2.96 µM
GI50 (A498 renal): 1.36 µM
TGI (A498 renal): 2.85 µM
GI50 (UO-31 renal): 1.65 µM
TGI (UO-31 renal): 3.07 µM
GI50 (HOP-62 NSCLC): 1.79 µM
TGI (HOP-62 NSCLC): 3.28 µM
GI50 (OVCAR-8 ovarian): 1.76 µM
TGI (OVCAR-8 ovarian): 3.39 µM
GI50 (NCI/ADR-RES ovarian): 12.9 µM
TGI (NCI/ADR-RES ovarian): 26.7 µM
GI50 (MALME-3M melanoma): 1.8 µM
TGI (MALME-3M melanoma): 3.31 µM
GI50 (SK-MEL-5 melanoma): 1.74 µM
TGI (SK-MEL-5 melanoma): 3.14 µM
GI50 (T-47D breast): 2.07 µM
TGI (T-47D breast): 3.97 µM
GI50 (ACHN renal): 1.99 µM
TGI (ACHN renal): 3.61 µM
GI50 (RXF 393 renal): 1.29 µM
TGI (RXF 393 renal): 2.62 µM
GI50 (U251 CNS): 1.69 µM
TGI (U251 CNS): 3.16 µM
GI50 (OVCAR-3 ovarian): 1.75 µM
TGI (OVCAR-3 ovarian): 3.29 µM
GI50 (PC-3 prostate): 1.73 µM
TGI (PC-3 prostate): 3.62 µM
GI50 (MOLT-4 leukemia): 1.56 µM
TGI (MOLT-4 leukemia): 3.85 µM
GI50 (NCI-H460 lung): 1.77 µM
TGI (NCI-H460 lung): 3.36 µM
GI50 (COLO 205 colon): 1.59 µM
TGI (COLO 205 colon): 3.08 µM
GI50 (HCT-15 colon): 1.8 µM
TGI (HCT-15 colon): 3.57 µM

Source: PubChem BioAssay (NCI)
